Test results as given in patent US9988378B2, “1 H-pyrazole and 4,5-disubstituted thiazole inhibitors of SYK” (Hoffmann-La Roche Inc., priority 2012, dated 2018).

Key:
[1] = biological target: T1, recombinant human SYK360-635 (Homo sapiens, UniProt P43405); experiment: SYK kinase assay, 33P ATP filtration (ENZYME_FILTRATION_IC50); format: biochemical; settings: SYK aa 360-635 0.5 nM, ATP 20 μM, peptide 5 μM, 30° C. 15 min
T1 construct: truncated construct of Spleen Tyrosine Kinase aa 360-635; made in house
Protocol: Determination of IC50 of Spleen Tyrosine Kinase (SYK) Inhibition:
SYK kinase assay is a standard kinase assay adapted to a 96 well plate format. This assay is performed in 96-well format for IC50 determination with […] which represented 10 half log dilutions and a 40 μL reaction volume. The assay measures the incorporation of radiolabeled ^33P ATP into an N-terminally biotinylated peptide substrate, derived from naturally occurring phosphoacceptor consensus sequence (Biotin-11aa DY*E). Phosphorylated products were detected upon termination of reactions with EDTA and the addition of Streptavidin coated beads. Representative results are in Table II above.
Assay plates: 96-well MultiScreen 0.65 um filter plates (Millipore Cat. No.: MADVNOB10) Streptavidin coated beads: Streptavidin Sepharose™, suspension 5.0 mL, in 50 mM EDTA/PBS diluted (1:100), (Amersham, Cat. No.: 17-5113-01)
Compounds: 10 mM in 100% dimethylsulfoxide (DMSO), final conc.: compound 0.003-100 uM in 10% DMSO
Enzyme: SYK RPA purified, truncated construct of Spleen Tyrosine Kinase aa 360-635, stock solution 1 mg/mL, MW: 31.2 KDa, final conc.:0.0005 μM.
Peptide 1: biotinylated peptide is derived from a naturally occurring phosphor-acceptor consensus sequence (Biotin-EPEGDYEEVLE), special order from QCB, stock solution 20 mM, final conc.: 5.0 μM.
ATP: Adenosine-5′-triphosphate 20 mM, (ROCHE Cat. No.: 93202720), final concentration: 20 μM
Buffer: HEPES: 2-Hydroxyethyl piperazine-2-ethanesulfonic acid (Sigma, Cat. No.: H-3375) final concentration: 50 mM HEPES pH7.5
BSA: Bovine Serum Albumin Fraction V, fatty acid free (Roche Diagnostics GmbH, Cat. No. 9100221) diluted to a final concentration of 0.1%
EDTA: EDTA stock solution 500 mM, (GIBCO, Cat. No.: 15575-038) final concentration: 0.1 mM
DTT: 1,4-Dithiothreitol (Roche Diagnostics GmbH, Cat. No.: 197777), final conc.: 1 mM MgCl2×6H2O: MERCK, Cat. No.: 105833.1000, final concentration: 10 mM
Assay Dilution Buffer (ADB): 50 mM HEPES, 0.1 mM EGTA, 0.1 mM Na Vanadate, 0.1 mM β-glycerophosphate, 10 mM MgCl2, 1 mM DTT, 0.1% BSA, pH 7.5
Bead wash buffer: 10 g/L PBS (Phosphate buffered saline) with 2M NaCl+1% phosphoric acid.
In 40 μL volume, 26 μL of ADB diluted, purified recombinant human SYK360-635 [0.5 nM] was mixed with 4 μL of 10× concentrations of the test compounds, [usually 100 μM-0.003 μM] in [10%] DMSO and the mixture was incubated for 10 min at RT.
The kinase reaction was initiated by the addition of 10 μL 4× substrate cocktail containing the DYE peptide substrate [0 or 5 μM], ATP [20 μM] and ^33PγATP [2 μCi/rxn]. After incubation at 30° C. for 15 min, the reaction was terminated by the transfer of 25 μL pf the reaction sample to a 96 well 0.65 μm Millipore MADVNOB membrane/plate containing 200 μL 5 mM EDTA and 20% Streptavidine coated beads in PBS.
The unbound radionucleotides were washed under vacuum with 3×250 μL 2M NaCl; 2×250 μL 2M NaCl+1% phosphoric acid; 1×250 μL H2O. After the last wash membrane/plates were transferred to an adaptor plate, heat dried for 15 min at 60° C., and 50 μL scintillation cocktail was added to each well and 4 h later the amount of radioactivity was counted in a top counter.
The percent inhibition was calculated based on the uninhibited enzyme rate: % Inhibition=100/(1+(IC50/Inhibitor conc)^n)
The IC50 was calculated using a non-linear curve fit with XLfit software (ID Business Solution Ltd., Guilford, Surrey, UK).

[2] = test system: RAMOS; experiment: RAMOS_V2_IC50; format: cell-based; settings: Homo sapiens
[3] = test system: human whole blood; experiment: IC50: human whole blood; format: cell-based

| SMILES | IC50 [1] [µM] | IC50 [2] [µM] | IC50 [3] [µM] |
| --- | --- | --- | --- |
| O=C(Nc1c[nH]nc1-c1nc2ccccc2s1)C1CC1 [Compound I-6, Cyclopropanecarboxylic acid (3-benzothiazol-2-yl-1H-pyrazol-4-yl)-amide] | 2.76 | 12 |  |
| Cc1ccc2[nH]c(-c3ncsc3C(=O)NC(C)(C)C)nc2c1 [Compound I-29, 4-(5-Methyl-1H-benzoimidazol-2-yl)-thiazole-5-carboxylic acid tert-butylamide] | 0.0466 | 1.52 | 10.4 |
| O=C(NC1CCOCC1)c1c[nH]nc1-c1nc2c(s1)CCC2 [Compound I-22, 3-(5,6-dihydro-4H-cyclopenta[d]thiazol-2-yl)-N-(tetrahydro-2H-pyran-4-yl)-1H-pyrazole-4-carboxamide] | 1.99 | > 34.1 |  |
| CC(=O)OCC(C)(C)C(=O)Nc1c[nH]nc1-c1nc2ccccc2s1 [Compound I-27, Acetic acid 2-(3-benzothiazol-2-yl-1H-pyrazol-4-ylcarbamoyl)-2-methyl-propyl ester] | 4.64 | 15.5 |  |
| O=C(Nc1c[nH]nc1-c1nc2ccccc2s1)C1CCOCC1 [Compound I-25, Tetrahydro-pyran-4-carboxylic acid (3-benzothiazol-2-yl-1H-pyrazol-4-yl)-amide] | 4.61 | 5.21 |  |
| CC(C)(C)NC(=O)c1c[nH]nc1-c1nc2c(s1)CCCC2 [Compound I-19, N-tert-butyl-3-(4,5,6,7-tetrahydrobenzo[d]thiazol-2-yl)-1H-pyrazole-4-carboxamide] |  | > 34.1 | > 50 |
| c1ccc(-c2ncc(-c3cc[nH]n3)s2)cc1 [Compound I-1, 2-Phenyl-5-(1H-pyrazol-3-yl)-thiazole] | 35.2 |  |  |
| Cc1ccc2[nH]c(-c3ncsc3NC3CCCC3)nc2c1 [Compound I-43, N-cyclopentyl-4-(5-methyl-1H-benzo[d]imidazol-2-yl)thiazol-5-amine] | 0.699 | > 34.1 |  |
| O=C(NC1CCOCC1)c1c[nH]nc1-c1nc2c(s1)CCCC2 [Compound I-23, N-(tetrahydro-2H-pyran-4-yl)-3-(4,5,6,7-tetrahydrobenzo[d]thiazol-2-yl)-1H-pyrazole-4-carboxamide] | 7.87 | > 34.1 |  |
| CCOC(=O)c1c[nH]nc1-c1nc2ccccn2n1 [Compound I-2, 3-[1,2,4]Triazolo[1,5-a]pyridin-2-yl-1H-pyrazole-4-carboxylic acid ethyl ester] | 0.113 | > 34.1 |  |
| Cc1ccc2sc(-c3n[nH]cc3C(=O)NC(C)(C)CO)cc2c1 [Compound I-9, N-(1-hydroxy-2-methylpropan-2-yl)-3-(5-methylbenzo[b]thiophen-2-yl)-1H-pyrazole-4-carboxamide] | > 10 |  | > 50 |
| Cc1cccc2[nH]c(-c3ncsc3Nc3cccnc3)nc12 [Compound I-40, 4-(4-methyl-1H-benzo[d]imidazol-2-yl)-N-(pyridin-3-yl)thiazol-5-amine] | 0.487 | 0.764 |  |
| O=C(NC1CCOCC1)c1c[nH]nc1-c1nc2ccccc2[nH]1 [Compound I-38, 3-(1H-Benzoimidazol-2-yl)-1H-pyrazole-4-carboxylic acid (tetrahydro-pyran-4-yl)-amide] |  | 0.483 | 0.87 |
| CC(C)(CO)C(=O)Nc1c[nH]nc1-c1nc2ccccc2s1 [Compound I-28, N-(3-Benzothiazol-2-yl-1H-pyrazol-4-yl)-3-hydroxy-2,2-dimethyl-propionamide] | 1.13 | 6.41 |  |
| CN1CCC(NC(=O)c2c[nH]nc2-c2nc3c(s2)CCCC3)CC1 [Compound I-24, N-(1-methylpiperidin-4-yl)-3-(4,5,6,7-tetrahydrobenzo[d]thiazol-2-yl)-1H-pyrazole-4-carboxamide] |  |  | > 50 |
| c1cncc(Nc2scnc2-c2nc3cnccc3[nH]2)c1 [Compound I-41] | 5.44 | > 31.2 |  |
| O=C(Nc1c[nH]nc1-c1nc2ccccc2s1)C1CCC1 [Compound I-26, Cyclobutanecarboxylic acid (3-benzothiazol-2-yl-1H-pyrazol-4-yl)-amide] | 1.23 |  |  |
| CC(C)C(=O)Nc1c[nH]nc1-c1nc2ccccc2s1 [Compound I-3, N-(3-Benzothiazol-2-yl-1H-pyrazol-4-yl)-isobutyramide] | 2.08 | 5.41 |  |
| COc1cccc(-c2n[nH]cc2C(=O)NC(C)(C)C)n1 [Compound I-11, N-tert-butyl-3-(6-methoxypyridin-2-yl)-1H-pyrazole-4-carboxamide] | 7.95 | > 34.1 |  |
| Cc1ccc2sc(-c3n[nH]cc3C(=O)NC(C)(C)C)cc2c1 [Compound I-10, N-tert-butyl-3-(5-methylbenzo[b]thiophen-2-yl)-1H-pyrazole-4-carboxamide] | > 10 |  | > 50 |
| CC(C)NC(=O)c1c[nH]nc1-c1nc2ccccc2[nH]1 [Compound I-36, 3-(1H-Benzoimidazol-2-yl)-1H-pyrazole-4-carboxylic acid isopropylamide] |  | 0.292 | 2.54 |
| Cc1ccc2[nH]c(-c3ncsc3NCC(C)C)nc2c1 [Compound I-44, N-isobutyl-4-(5-methyl-1H-benzo[d]imidazol-2-yl)thiazol-5-amine] | 0.621 | 7.98 |  |
| CC(C)(CO)NC(=O)c1c[nH]nc1-c1nc2ccccc2[nH]1 [Compound I-39, 3-(1H-Benzoimidazol-2-yl)-1H-pyrazole-4-carboxylic acid (2-hydroxy-1,1-dimethyl-ethyl)-amide] |  | 0.986 | 2.87 |
| CC(C)(C)C(=O)Nc1c[nH]nc1-c1nc2ccccc2s1 [Compound I-4, N-(3-Benzothiazol-2-yl-1H-pyrazol-4-yl)-2,2-dimethyl-propionamide] | 0.621 | 3.83 |  |
| CCC(C)(C)Nc1scnc1-c1nc2cc(C)ccc2[nH]1 [Compound I-42, 4-(5-methyl-1H-benzo[d]imidazol-2-yl)-N-tert-pentylthiazol-5-amine] | 1.62 |  | > 50 |
| O=C(Nc1c[nH]nc1-c1nc2ccccc2s1)C1CCCC1 [Compound I-5, Cyclopenanecarboxylic acid (3-benzothiazol-2-yl-1H-pyrazol-4-yl)-amide] | 1.28 | 4.65 |  |
| CC(C)(C)NC(=O)c1c[nH]nc1-c1nc2ccccc2[nH]1 [Compound I-37, 3-(1H-Benzoimidazol-2-yl)-1H-pyrazole-4-carboxylic acid tert-butylamide] |  | 0.14 | 2.86 |
| CCOC(=O)c1c[nH]nc1-c1nc2c(s1)CCC2 [Compound I-15, ethyl 3-(5,6-dihydro-4H-cyclopenta[d]thiazol-2-yl)-1H-pyrazole-4-carboxylate] | > 10 | > 34.1 |  |
| CCOC(=O)c1c[nH]nc1-c1nc2c(s1)CCCC2 [Compound I-14, ethyl 3-(4,5,6,7-tetrahydrobenzo[d]thiazol-2-yl)-1H-pyrazole-4-carboxylate] | > 10 | > 34.1 |  |
| O=C(NC1CCCC1)c1c[nH]nc1-c1nc(-c2ccccc2)cs1 [Compound I-20, N-cyclopentyl-3-(4-phenylthiazol-2-yl)-1H-pyrazole-4-carboxamide] | 0.215 |  | > 50 |
